What was measured:
liver PDH activity = assay: Ex vivo PDH activation assay, liver; format: in vivo, Sprague-Dawley rats; conditions: non-fasting SD rats, vehicle 13 ± 3, mean ± S.D. (n = 3)
Experimental: (§1) The action of test compound on tissue PDH activity was evaluated. NADH production was detected via p-iodonitrotetrazolium violet (INT)-coupled system to measure PDH activity.
(§2) Normal male Sprague-Dawley rats were randomly allocated to the vehicle group and the test compound groups. The vehicle (0.5% aqueous methylcellulose solution, 5 mL/kg) or the test compound was orally administered to the rats. At 5 or 20 hr after administration, the rats were anesthetized with an intraperitoneal injection of sodium pentobarbital (60 mg/kg), and liver slices and epididymal adipose tissues were collected.
To the liver slices were rapidly added 9 volumes of ice-cold homogenization buffer (0.25 mol/L sucrose, 5 mmol/L tris(hydroxymethyl)aminomethane hydrochloride (pH 7.5), 2 mmol/L EDTA), and the mixtures were homogenized using a Polytron homogenizer. The homogenates were centrifuged at 600×g, 4° C. for 10 min to obtain the supernatant. The supernatants (1 mL) were centrifuged at 16,000×g, 4° C. for 10 min to collect the precipitates. The precipitates were washed by resuspension in the homogenization buffer (1 mL) and centrifuged in the same manner. The precipitates were frozen with liquid nitrogen and stored at −80° C. as the liver mitochondrial fraction.
(§3) The mitochondrial fractions were thawed and suspended with the sample buffer (0.25 mol/L sucrose, 20 mmol/L tris(hydroxymethyl)aminomethane hydrochloride (pH 7.5), 50 mmol/L potassium chloride, and 1 mL/L 4-(1,1,3,3-tetramethylbutyl)phenyl-polyethylene glycol (Triton X-100)). Active PDH activity (PDHa activity) and total PDH activity (PDHt activity) were measured to evaluate the PDH activity. For the measurement of the PDHt activity, equal amounts of the mitochondrial suspension and the activation buffer (0.25 mol/L sucrose, 20 mmol/L tris(hydroxymethyl)aminomethane hydrochloride (pH 7.5), 50 mmol/L potassium chloride, 1 mL/L Triton X-100, 4 mmol/L calcium chloride, 40 mmol/L magnesium chloride, 10 mmol/L sodium dichloroacetate) were mixed, and the mixtures were incubated at 37° C. for 10 min. Forty microliters of the mitochondrial suspensions diluted with a sample buffer were added to a 96-well microplate for activity measurement and blank measurement. Then 180 μL of the reaction mixture (0.056 mmol/L potassium phosphate buffer (pH 7.5), 5.6 mmol/L DL-carnitine, 2.8 mmol/L NAD, 0.22 mmol/L thiamin pyrophosphate, 0.11 mmol/L Coenzyme A, 1.1 mL/L Triton X-100, 1.1 mmol/L magnesium chloride, 1.1 g/L bovine serum albumin, 0.67 mmol/L INT, 7.2 μmol/L phenazine methosulfate, 28 mmol/L sodium oxamate) was added to each well, and then 20 μL of 50 mmol/L sodium pyruvate for activity measurement or water for blank measurement were added. The mixtures were incubated at room temperature under shading. The absorbances at 500-750 nm, which were attributable to reduction of INT, the final electron acceptor, were measured using a microplate reader over time and the changes in the absorbance were calculated. The PDH activity was calculated by subtraction of the change in absorbance of the blank well from that of the activity measurement well. The percentage of the PDHa activity to the PDHt activity was calculated and taken as an index of the PDH activation.

[1] = tested on: adipose tissue PDH activity; assay: Ex vivo PDH activation assay, adipose tissue; format: in vivo, Sprague-Dawley rats; conditions: non-fasting SD rats, vehicle 31 ± 10, mean ± S.D. (n = 3)
Experimental: as §1, §2
To the adipose tissues were rapidly added 3 volumes of an ice-cold homogenization buffer, and the mixtures were homogenized using a Polytron homogenizer. The homogenates were centrifuged at 600×g, 4° C. for 10 min to obtain the supernatant. The supernatants were centrifuged at 16,000×g, 4° C. for 10 min to collect the precipitates. The precipitates were washed by resuspension in the homogenization buffer (1 mL) and centrifuged in the same manner. The precipitates were frozen with liquid nitrogen and stored at −80° C. as the adipose tissue mitochondrial fraction.
as §3

[2] = molecular target: hERG current in hERG-transfected HEK293 cells (Homo sapiens (Human), UniProt Q12809); assay: hERG whole cell patch clamp test; format: cell-based
Experimental: Using human ether-a-go-go related gene (hERG)-transfected HEK293 cells (Cytomyx Limited), an influence on hERG current was examined according to the whole cell patch clamp technique. The hERG-transfected HEK293 cells were passaged using a CO2 incubator (BNA-111, TABAI ESPEC CORP.) under the set conditions of 37° C., 5% CO2, saturated humidity. Culture containers used were Collagen Type I Coated 75 cm^2 flask (4123-010, AGC TECHNO GLASS CO., Ltd.) and Collagen Type I Coated 35 mm culture dish (4000-010, AGC TECHNO GLASS CO., Ltd.). The culture medium used was E-MEM (Eagle Minimum Essential Medium (Earle's Salts, Nikken biomedical laboratory) added with 10% FCS (Fetal calf serum, BioWest, L.L.C.) and 1% MEM Non-Essential Amino Acids Solution (NEAA, Invitrogen Corporation). Geneticin for the selection of hERG gene expressing cells was added thereto to a concentration of 400 μg/mL. As the cells for the measurement, 3×10^4 hERG-transfected HEK293 cells were plated on a 35 mm culture dish 4 to 7 days before measurement of the hERG current. The culture dish produced for the measurement contained the above-mentioned culture medium without geneticin (Invitrogen Corporation).
The highest evaluation concentration of each compound was determined from the highest concentration at which precipitation was not found in the standard extracellular fluid (NaCl: 140 mmol/L, KCl: 2.5 mmol/L, MgCl2:2 mmol/L, CaCl2: 2 mmol/L, HEPES: 10 mmol/L, glucose: 10 mmol/L (adjusted to pH 7.4 with Tris-base)). As the application method, each solution to be applied was ejected from a Y-tube having a tip diameter of about 0.25 mm, which was adjacent (about 2 mm) to the cells, and applied to the cells. The ejection rate was about 0.4 mL/min.
The experiment was performed at room temperature under a phase contrast microscope. The 35 mm culture dish plated with the cells was set on a measurement apparatus, and the standard extracellular fluid was continuously applied to the cells from the Y-tube. A glass electrode for the measurement was filled with an intracellular fluid (Potassium Gluconate: 130 mmol/L, KCl: 20 mmol/L, MgCl2: 1 mmol/L, ATP-Mg: 5 mmol/L, EGTA: 3.5 mmol/L, HEPES: 10 mmol/L (adjusted to pH 7.2 with Tris-base)). A conventional whole cell patch clamp method was applied to the cells, and the maintenance electric potential was set to −80 mV. Under a fixed electric potential, the whole cell current was amplified by an amplifier for patch clamp (AXOPATCH-200B, Axon Instruments, Inc.), and the data was loaded into a computer (IMC-P642400, Intermedical Co., Ltd.) using a data acquisition analysis software (pCLAMP 9.2, Axon Instruments, Inc.).
The measurement of the hERG current was performed in the following two steps. In both cases, the hERG current was initiated by giving a command potential (maintenance electric potential −80 mV, prepulse +20 mV, 1.5 sec, test-pulse −50 mV, 1.5 sec).
Step (1): The above-mentioned command potential was given at 0.1 Hz for 2 min.
Step (2): The above-mentioned command potential was subjected to P/3 subtraction of pCLAMP 9.2 to remove leak current. This was repeated three times and an average thereof was taken as hERG current.
Subsequent to step (1), Step (2) was performed (about 3 min), and the maximum tail current obtained by applying a test-pulse to the hERG current obtained by the method of step (2) was taken as hERG current value. Hereafter, the operations of (1) and (2) were alternately repeated until completion of the experiment and the hERG current value was measured.
Stable hERG current value was recorded three times (about 10 min), and the standard extracellular fluid was instantaneously exchanged with each application fluid. The hERG current value was measured three times (about 10 min) in the same manner during perfusion of the application fluid, and the current value obtained by the 3rd measurement was taken as hERG current value after perfusion of the application fluid. […]

[3] = Table 2, 5 hr after oral 3 mg/kg
[4] = Table 2, 20 hr after oral 3 mg/kg

hERG current in hERG-transfected HEK293 cells, sequence (Q12809 whole entry): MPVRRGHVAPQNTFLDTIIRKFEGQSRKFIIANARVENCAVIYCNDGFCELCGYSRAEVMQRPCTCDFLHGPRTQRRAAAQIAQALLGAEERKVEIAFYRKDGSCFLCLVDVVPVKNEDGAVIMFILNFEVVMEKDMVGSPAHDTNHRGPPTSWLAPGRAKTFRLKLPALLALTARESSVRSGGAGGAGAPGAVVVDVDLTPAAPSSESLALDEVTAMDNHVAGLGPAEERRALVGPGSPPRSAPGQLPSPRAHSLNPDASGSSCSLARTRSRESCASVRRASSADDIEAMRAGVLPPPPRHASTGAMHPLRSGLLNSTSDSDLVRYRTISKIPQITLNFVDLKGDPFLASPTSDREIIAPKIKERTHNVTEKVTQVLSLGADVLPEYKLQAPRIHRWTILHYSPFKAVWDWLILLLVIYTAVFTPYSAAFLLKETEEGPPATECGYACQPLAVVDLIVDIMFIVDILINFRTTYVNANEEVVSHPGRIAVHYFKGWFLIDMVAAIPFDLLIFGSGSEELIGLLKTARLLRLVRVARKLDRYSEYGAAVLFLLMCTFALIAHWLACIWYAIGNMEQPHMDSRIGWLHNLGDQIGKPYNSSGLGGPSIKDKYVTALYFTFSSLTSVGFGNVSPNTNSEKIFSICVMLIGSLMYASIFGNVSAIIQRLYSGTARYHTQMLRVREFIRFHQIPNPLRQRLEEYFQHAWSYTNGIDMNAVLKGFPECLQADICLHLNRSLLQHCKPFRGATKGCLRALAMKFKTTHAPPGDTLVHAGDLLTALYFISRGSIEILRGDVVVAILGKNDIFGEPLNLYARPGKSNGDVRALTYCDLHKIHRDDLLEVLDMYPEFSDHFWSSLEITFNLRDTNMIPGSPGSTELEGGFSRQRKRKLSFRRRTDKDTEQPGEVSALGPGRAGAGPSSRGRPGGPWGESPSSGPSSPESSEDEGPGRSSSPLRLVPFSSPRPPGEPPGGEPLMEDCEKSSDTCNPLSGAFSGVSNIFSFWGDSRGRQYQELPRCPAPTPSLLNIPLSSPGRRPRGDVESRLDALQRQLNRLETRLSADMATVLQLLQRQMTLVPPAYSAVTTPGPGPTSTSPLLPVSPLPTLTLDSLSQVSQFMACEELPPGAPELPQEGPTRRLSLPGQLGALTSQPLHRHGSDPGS

Row | SMILES | PDHa activity (% of PDHt activity) (liver PDH activity; [3]) | PDHa activity (% of PDHt activity) (liver PDH activity; [4]) | PDHa activity (% of PDHt activity) [1, 3] | PDHa activity (% of PDHt activity) [1, 4] | hERG current Inhibition rate (%) ([2]; 3 μmol/L) | hERG current Inhibition rate (%) ([2]; 30 μmol/L)
1 | CC(C)(O)COc1cc(-c2cnn(CCO)c2)c2c(c1)[C@@](O)(C(F)(F)F)c1ccccc1-2 [Compound (C), (9R)-4-[1-(2-Hydroxyethyl)-1H-pyrazol-4-yl]-2-(2-hydroxy-2-methylpropoxy)-9-(trifluoromethyl)-9H-fluoren-9-ol] | 44 ± 5 % of PDHt activity | 13 ± 3 % of PDHt activity | 53 ± 4 % of PDHt activity | 28 ± 7 % of PDHt activity | 11.5% | 69.0%
2 | CC(C)(C(N)=O)n1cc(-c2cc(F)cc3c2-c2ccccc2[C@]3(O)C(F)(F)F)cn1 [Compound (D), 2-{4-[(9R)-2-Fluoro-9-hydroxy-9-(trifluoromethyl)-9H-fluoren-4-yl]-1H-pyrazol-1-yl}-2-methylpropanamide] | 41 ± 15 % of PDHt activity | 20 ± 1 % of PDHt activity | 43 ± 7 % of PDHt activity | 24 ± 3 % of PDHt activity | 9.4% | 67.5%

Source: patent US9040717B2, “Pyrazole-amide compounds and pharmaceutical use thereof” (JAPAN TOBACCO INC., priority 2013, dated 2015)
